Calls of active or inactive are those of the source. No rule for the calls is given here.
Experiment: blockers of an Epstein-Barr virus protein-peptide interaction – biochemical, fluorescence polarization, dose response (AID 1419)
Details: cell-free protein-peptide binding, 2 h; for fold change: measured here: P channel fold over control, at 54 µM

SMILES	IC50	fold change
Cc1nnc(NC(=O)COc2ccc3c(C)cc(=O)oc3c2)s1	> 54 µM (inactive)	1.06
COc1cc(/C=N/c2oc(-c3ccccc3)cc2C#N)ccc1O	15.5 µM	10.2
O=c1[nH]c(C(Cl)Cl)nc2sc3c(c12)CCN(Cc1ccccc1)C3	11.8 µM	2
CC(=O)Oc1ccc2c(c1)O/C(=C\c1ccncc1)C2=O	3.08 µM	10.9
COC(CNC(=O)c1ccc2c3c(onc13)-c1ccccc1C2=O)OC	< 0.42 µM	137
CCN(CC)C(=O)CSc1nnc2nnc3cc(Cl)ccc3n12	4.38 µM	3.1
CC(=O)Nc1nc(C)c(-c2csc(Nc3cccc([N+](=O)[O-])c3)n2)s1	> 54 µM (inactive)	0.71
NC(=O)c1ccc(N=Nc2c(O)c3ccccc3[nH]c2=O)cc1	13.3 µM	2.71
CCn1c(O)c(C=Nc2ccc(N3CCOCC3)cc2)c(=O)n(CC)c1=S	4.91 µM	36.6
O=c1[nH]c(=O)n(Cc2ccccc2)c(O)c1/C=C1\C=Nc2ccccc21	2.18 µM	6.67
Cc1ccc2cc3c(N)c4c(C)ccc(C)c4nc3nc2c1	0.92 µM	6.77
Nc1c(S(=O)(=O)c2ccccc2)c2nc3ccccc3nc2n1Cc1ccco1	> 54 µM (inactive)	1.32
Cc1ccc([N+](=O)[O-])cc1N=Nc1c(-c2ccc([N+](=O)[O-])cc2)[nH]n(C(N)=S)c1=O	1.83 µM	1.04
O=C1N=c2ccccc2=C1c1sc(Nc2ccc(O)cc2)nc1O	1.88 µM	0.2
O=C1c2cccc3cc([N+](=O)[O-])cc(c23)C(=O)N1/N=C/c1ccc(O)cc1O	10 µM	0.933
O=c1cc2oc3cc(O)c(O)cc3c(-c3ccccc3O)c-2cc1O	5.29 µM	232
CN1/C(=C\C=C\C2=[N+](C)c3ccc4ccccc4c3C2(C)C)C(C)(C)c2ccccc21	3.78 µM	4.43
COc1ncnc2c1N=C1CC(C)(C)CC(N)=C1S2	2.31 µM	6.34
O=C(C1=NN(c2ccccc2)C2C(=O)N(c3ccccc3Cl)C(=O)C12)c1ccccc1 (configuration not stated)	6.16 µM	8.43
COc1cccc(C2C3CN(C)CC=C3C(C#N)=C(N)C2(C#N)C#N)c1OC (configuration not stated)	0.83 µM	9.89
Cc1c2cc(O)c(=O)cc-2oc2cc(O)c(O)cc12	1 µM	236

SMILES	IC50	fold change
N#Cc1c(N)sc(=S)c2c1CCCC2	> 54 µM (inactive)	1.09
Cc1ccc(C(NC(=O)C2CCCCC2)c2c(O)ccc3ccccc23)cc1 (configuration not stated)	> 54 µM (inactive)	1.03
Cn1cc(/C=C2\SC(=O)NC2=S)c2ccccc21	> 54 µM (inactive)	2.12
CCCn1c(SCCc2ccccc2)nc2c1c(=O)[nH]c(=O)n2C	> 54 µM (inactive)	0.953
CC(=C/c1ccccc1)/C=N/NC(=O)c1cnccn1	> 54 µM (inactive)	1.1
CCOc1cc(C=C2C(=O)c3ccccc3C2=O)ccc1OCC(=O)Nc1ccc(C)cc1	2.18 µM	11.6
O=c1[nH]c2ccc(N=Cc3c(O)ccc4cc(Br)ccc34)cc2[nH]1	0.97 µM	7.85
CC(=O)n1c(C=Nc2ccc(Cl)cc2)c(O)c2ccccc21	1.09 µM	31.8
Cc1cc([N+](=O)[O-])ccc1-c1ccc(/C=N/NC(=O)Cc2ccccc2)o1	6.04 µM	10.6
CN1CC=C2C(C#N)=C(N)C(C#N)(C#N)[C@H](c3cccc(Cl)c3)C2C1 (some centres not stated)	3.17 µM	4.79
O=C1c2cccc3c(O)ccc(c23)C(=O)N1Cc1ccccc1	< 0.42 µM	138
O=C1NC(=O)N(c2ccc(F)cc2)C(=O)/C1=C/c1ccc2c(c1)CCCN2Cc1ccccc1	< 0.42 µM	38
N=C1/C(=C\c2ccc(-c3cccc(C(=O)O)c3)o2)C(=O)N=C2SC=C(c3ccccc3)N12	4.25 µM	1.23
CN1CCN(c2ccc([N+](=O)[O-])c3no[n+]([O-])c23)CC1	1.32 µM	11.6
Nc1ccc(N)c(C(=O)O)c1	3.76 µM	2.6
Cn1c(=O)cc2c3c(c(N4CCCCC4)ccc31)C(=O)c1ccccc1-2	4.67 µM	1.91
CCCN1C(=O)c2cccc3c(N4CCCCC4)ccc(c23)C1=O	> 54 µM (inactive)	15.2
CCCCN1C(=O)/C(=C/C=C2\N(C)c3ccccc3C2(C)C)SC1=S	2.01 µM	18.6
CCOC(=O)/C(C#N)=C/c1cc2ccccc2nc1N1CCCCC1	27.1 µM	2.2
Cc1cc(/C=C2\SC(=S)N(Cc3ccco3)C2=O)c(C)n1-c1ccccc1	7.24 µM	4.81
